The conditions of data set [1]: pump delivery, over 6-months; cited from earlier work.
The conditions of data set [2]: cited from earlier work; for osteosarcoma rate: rats, daily injections.
The conditions of data set [3]: cited from earlier work.
For data set [4] the following is noted: 6-year follow-up; cited from earlier work.
Data set [5] can be described thus: Dose range finding / dose adjustment study with daily subcutaneous injections of TransCon PTH. On the set-up: time of peak calcium concentration postdose / increases in calcium to pre-study levels / calcium increases: dose or concentration left out as unconfirmed. The settings on record: for sCa compared to pre-study levels: severe hypercalcaemic levels.
Method: Dose Range Finding Study—Dose Adjustment Study in Cynomolgus Monkeys with Daily Subcutaneous Injections with TransCon PTH
This study was conducted in order to test the hypothesis of performing dose adjustments with TransCon PTH in 25% increments in response to hypocalcemia or hypercalcemia. The study was performed in male and female Cynomolgus monkeys. Four groups with one male and one female animal in each were dosed for four weeks starting at doses 0.2, 0.5, 1.0 and 2.0 μg/kg/day, respectively. Serum calcium (sCa) levels in the animals were measured pre-dose and post-dose on days -6, 1, 3, 7, 8, 12, 14, 16, 19, 23, 26, 28 and 29.

Like-named read-outs stand apart in the source and are kept apart here.

Consider `CC[C@H](C)[C@H](NC(=O)[C@H](CCC(=O)O)NC(=O)[C@H](CO)NC(=O)[C@@H](NC(=O)[C@@H](N)CO)C(C)C)C(=O)N[C@@H](CCC(N)=O)C(=O)N[C@@H](CC(C)C)C(=O)N[C@@H](CCSC)C(=O)N[C@@H](Cc1cnc[nH]1)C(=O)N[C@@H](CC(N)=O)C(=O)N[C@@H](CC(C)C)C(=O)NCC(=O)N[C@@H](CCCCN)C(=O)N[C@@H](Cc1cnc[nH]1)C(=O)N[C@@H](CC(C)C)C(=O)N[C@@H](CC(N)=O)C(=O)N[C@@H](CO)C(=O)N[C@@H](CCSC)C(=O)N[C@@H](CCC(=O)O)C(=O)N[C@@H](CCCN=C(N)N)C(=O)N[C@H](C(=O)N[C@@H](CCC(=O)O)C(=O)N[C@@H](Cc1c[nH]c2ccccc12)C(=O)N[C@@H](CC(C)C)C(=O)N[C@@H](CCCN=C(N)N)C(=O)N[C@@H](CCCCN)C(=O)N[C@@H](CCCCN)C(=O)N[C@@H](CC(C)C)C(=O)N[C@@H](CCC(N)=O)C(=O)N[C@@H](CC(=O)O)C(=O)N[C@H](C(=O)N[C@@H](Cc1cnc[nH]1)C(=O)N[C@@H](CC(N)=O)C(=O)N[C@@H](Cc1ccccc1)C(=O)O)C(C)C)C(C)C` [PTH(1-34)], for which, in data set [1], the calcium levels result is reported as “normal, steady state calcium levels with minimal fluctuation”. Further, in data set [2], the osteosarcoma rate result is listed as “dose dependent increase”.

Turning to “PTH(1-84): Natpara, PTH(1-84), approved 2015 for once-daily subcutaneous injection in hypoparathyroidism; SEQ ID NO: 1”, the urinary calcium excretion result in data set [3] (2-8 hours after injection) is on record as “reduced”. For the same compound, the urinary phosphate excretion result in data set [3] (after injection) was “increased only during the first 8 hours”. In addition, the “patients developing hypercalcemia at one or more measurements” value in data set [3] (during a 24-hour period after injection) was 71%. For the same compound, in data set [3] (once-daily subcutaneous injection, pivotal trial), the “participants achieving normal blood calcium levels on reduced doses of calcium supplements and active forms of vitamin D” value is listed as 42%. Moreover, the urinary calcium excretion entry in data set [3] (over the 24-hour period) is reported as “did not change”. Besides, in data set [4], the “BMD by DXA” value is “increases in lumbar spine and declines in distal ⅓ radius”; the bone turnover markers entry is listed as “remained greater than pretreatment values”. Also, the “deaths in high dose group” value in data set [2] (high dose rats, dosing discontinued, primarily from metastatic osteosarcoma) is recorded as “excessive deaths”. In data set [2], the osteosarcoma rate result is “dose dependent increase”.

As for “TransCon PTH: controlled-release PTH compound administered subcutaneously to cynomolgus monkeys; not tied to a numbered conjugate”, the “sCa compared to pre-study levels” value in data set [5] (Day 3, female dosed at 2.0 μg/kg/day) is given as not above 1.34 ×; in data set [5] (Day 3, male dosed at 2.0 μg/kg/day), “up to 1.42 ×”. Further, in data set [5] (Day 23, male), the “time of peak calcium concentration postdose” value is 4 h. Moreover, the “increases in calcium to pre-study levels” value in data set [5] (Day 26, male and female) is on record as “up to 1.17 ×”. Also, the calcium increases entry in data set [5] (Day 29, both sexes) is “still present”. The tolerability result in data set [5] (daily subcutaneous administration at 0.2, 0.5 and 1.0 jag/kg/day for 28 days) is “well tolerated”.

The values above are taken from patent US12453778B2, “Incremental dose finding in controlled-release PTH compounds” (Ascendis Pharma Bone Diseases A/S, priority 2016, dated 2025).
